Assay results taken from publication PMC10176470, “Engaging a Non-catalytic Cysteine Residue Drives Potent and Selective Inhibition of Caspase-6” (Journal of the American Chemical Society, 2023).

Molecular target: proteins of HEK293T cells transiently overexpressing caspase-6 (Homo sapiens, UniProt P49591)
Format: cell-based
Details: exp_ref Probe; protein SARS (P49591); analysis C6

Sequence of proteins of HEK293T cells transiently overexpressing caspase-6 (P49591 whole entry, looked up): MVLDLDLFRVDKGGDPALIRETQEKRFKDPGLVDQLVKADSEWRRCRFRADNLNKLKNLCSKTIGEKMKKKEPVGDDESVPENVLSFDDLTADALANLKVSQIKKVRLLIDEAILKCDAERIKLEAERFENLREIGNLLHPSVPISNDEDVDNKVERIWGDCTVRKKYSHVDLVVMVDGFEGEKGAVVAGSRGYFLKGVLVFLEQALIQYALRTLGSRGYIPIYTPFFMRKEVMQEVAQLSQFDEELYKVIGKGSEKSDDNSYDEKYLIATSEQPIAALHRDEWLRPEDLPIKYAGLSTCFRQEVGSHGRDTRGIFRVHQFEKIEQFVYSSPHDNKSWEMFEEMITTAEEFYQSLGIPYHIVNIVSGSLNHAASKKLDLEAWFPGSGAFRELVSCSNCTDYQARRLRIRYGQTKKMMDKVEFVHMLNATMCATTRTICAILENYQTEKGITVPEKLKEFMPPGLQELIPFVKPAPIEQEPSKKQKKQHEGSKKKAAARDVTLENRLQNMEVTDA

**Q.** Which enrich.exp.med does the source give for `C#CCOc1ccc([C@@H]2C[C@@H](C(=O)Nc3ccc(OC(F)(F)F)cc3)CN(S(=O)(=O)C=C)C2)cc1` (relative stereo) [13-t] here?
**A.** 0.8697
